Assays:
Format in all cases: cell-based
[1] = tested on: eIF3η, PABPC1, and FXR1 puncta in U2OS cells stably expressing G3BP1-GFP; assay: Immunofluorescence of additional stress granule markers after post-addition; details: 250 μM NaAsO2 for 30 min, then 50 μM compound for 5 min
Procedure: U2OS cells or U2OS cells stably expressing G3BP1-GFP were seeded in four-well Lab-Tek II Chambered Coverglass (1055360; Thermo Fisher Scientific). For preincubation experiments, cells were treated with 50 μM G3I compound for 20 min or 24 h, followed by 250 μM NaAsO2 and 50 μM G3I compound for 30 min. For posttreatment, cells were treated with 250 μM NaAsO2 for 30 min, followed by treatment with 250 μM NaAsO2 and 50 μM G3I compound for 5 min. Cells were then washed twice with PBS and fixed with 4% PFA in PBS for 10 min. Cells were then washed three times with PBS (5 min between each wash), permeabilized with 0.5% Triton X-100 in PBS for 10 min, and washed twice with PBS. Next, cells were blocked for 1 h with 3% BSA in PBS at room temperature, followed by incubation with primary antibodies diluted in 3% BSA overnight at 4°C. Cells were then washed three times with PBS (5 min between each wash) and incubated with secondary antibodies and Hoechst diluted in 3% BSA at room temperature for 1 h. Cells were then washed three times with PBS (5 min between each wash) and imaged. […]

[2] = tested on: stress granule formation in human iPSC-derived cortical neurons; assay: Stress granule formation in iPSC-derived cortical neurons (co-incubation); details: 50 μM co-incubated with or without 500 μM NaAsO2 for 60 min
Procedure: (§1) i3N iPSC clones were gifts from Michael E. Ward (National Institutes of Health, Bethesda, MD, USA) and were used to generate a G3BP1-mNeongreen knock-in iPSC line. iPS neurons were differentiated with a two-step protocol (predifferentiation and maturation) as previously described ([Wang et al., 2017]). For predifferentiation, iPSCs were incubated with 1 µg/ml doxycycline hyclate (Sigma-Aldrich) for 3 days at a density of 1.2 × 10^6 cells/well in six-well dishes coated with Matrigel in knockout DMEM (KO-DMEM)/F12 medium (Thermo Fisher Scientific) containing N2 supplement (Thermo Fisher Scientific), non-essential amino acids (NEAA; Thermo Fisher Scientific), GlutaMAX Supplement (Thermo Fisher Scientific), and Y-27632 ([…] Technologies). The medium was changed daily and Y-27632 was removed from day 2. For maturation, predifferentiated precursor cells were dissociated, counted, and subplated at 25 × 10^4 cells/ml on dishes coated with 50 μg/ml poly-L-ornithine in BrainPhys neuronal medium ([…] Technologies) containing N2 (Thermo Fisher Scientific), B-27, 20 ng/ml BDNF (PeproTech), 20 ng/ml GDNF (PeproTech), 500 µg/ml dibutyryl cyclic-AMP (Sigma-Aldrich), 200 nM L-ascorbic acid (Sigma-Aldrich), 1 µg/ml natural mouse laminin (Thermo Fisher Scientific), 1 μM Ara-C (Sigma-Aldrich), and 1 µg/ml doxycycline hyclate. Half-medium was changed every other day. […]

[3] = tested on: preformed stress granules in human iPSC-derived cortical neurons; assay: Dissolution of preformed stress granules in iPSC-derived cortical neurons; details: 50 μM added after 30 min of 500 μM NaAsO2
Procedure: as §1

Compound | eIF3η, PABPC1, and FXR1 puncta [1] | spontaneous and arsenite-induced stress granule formation [2] | dissolution of preformed stress granules [3]
COCCC(NC(=O)C(C)NC(=O)C(NC(=O)C(NC(=O)C(F)CC(C)(C)C)C(C)(C)O)C(C)c1ccccc1)C(=O)N(C)Cc1ccccc1 (stereo not shown) [G3Ia] | reduced eIF3η, PABPC1, and FXR1 puncta | blocked both spontaneous and arsenite-induced stress granule formation | 
CC(NC(=O)C(NC(=O)C(NC(=O)CCC(C)(C)C)C(C)(C)O)C(C)c1ccccc1)C(=O)N1CCCC1c1ccccc1 (stereo not shown) [G3Ib] | reduced eIF3η, PABPC1, and FXR1 puncta |  | nearly instantaneously dissolved stress granules

Source: PMC10824102, “Identification of small molecule inhibitors of G3BP-driven stress granule formation” (The Journal of Cell Biology, 2024)
